# Where a SMILES comes first, the peptide text is derived from it.
# T1: GAPR-1 (UniProt Q9H4G4 2-154, limits assumed)
# T1 construct: Purified protein used in MST; also called purified Gapr-1
# T1 sequence (looked up): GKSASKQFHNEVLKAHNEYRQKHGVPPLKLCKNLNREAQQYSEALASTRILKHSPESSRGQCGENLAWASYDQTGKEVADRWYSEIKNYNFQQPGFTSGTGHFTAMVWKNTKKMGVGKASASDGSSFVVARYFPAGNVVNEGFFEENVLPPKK
# How the values were obtained:
# [1] = test system: S. typhimurium; assay type: cell-based; conditions: 24 h
# [2] = test system: mTOR; assay: mTOR independent activation of autophagy: western blot of S6Kinase / 4E-BP1 phosphorylation; assay type: cell-based; conditions: Huh7 cells, peptides 10 μM, 6 h
# Protocol: FIG. 5 depicts mTOR independent activation of autophagy Huh7 cells were treated with peptides (10 μM) and torin1 (1 μM) for 6 h and lysed in lysis buffer (1mM EDTA, 20 mM Tris-HCl pH 7.4, 250 mM NaCl, PMSF, and PI). Western blot was performed by GAPDH (internal control), […] and S6K1 antibodies. The peptides were tested for inhibition of mTOR by testing for phosphorylation of enzyme p70S6K. The phosphorylation of p-p70S6K at threonine 389 has been used as a hallmark of activation by mTOR.
# Huh7/HeLa cells were treated with peptides 10 μM for 6 h and protein lysates were analysed by western blotting using pS6Kinase, S6Kinase, p-4E-BP1, 4E-BP1 and GAPDH antibodies. Torin 1 was used as positive control.
# [3] = test system: S. typhimurium (strain Xen33); assay: In vivo S. typhimurium (Xen33) infection and disease progression in FVB mice
# Protocol: For the in vivo studies, mouse S. typhimurium (strain Xen33) infection carried out as per the previous protocol of Griffin et al., 2011. In brief, mice were pre-treated with streptomycin. Water and food were withdrawn before 4hours of infection. For the experiments, 6-8 weeks of FVB male mice were utilized in a group of 5. Mice related experiments and its maintenance were carried out in a small animal facility at THSTI, Faridabad. […] FVB mice were infected orally with Xen-33(S. typhimurium) and its bioluminescence was measured by in vivo imaging with IVIS Lumina (Perkin Elmer) and quantified with living image software version 4.2. Bioluminescent levels were measured as radiance (p/sec/cm^2/sr), by using a pseudo scale for measurement in which blue represents low intensity and red represents high intensity. Posts in vivo imaging, the bacterial burden in faecal sample were also measured.
# Mice having Salmonella typhimurium infection or non-infected were sacrificed and their intestine was removed for immunohistochemistry studies. Intestines were washed with PBS and fixed in 10% formaldehyde. Thereafter, fine-sectioned on a microtome. Tissue blocks were prepared on Paraffin wax and then hematoxylin and eosin (HE) staining was carried out. The finally stained sections were then observed, and images were acquired by using the Ti Eclipse Nikon microscope. The scoring was done by random scoring by different individuals.
# In vivo effect of p7T treatment on S. typhimurium infection and disease progression in FVB mice. Recovery of chronically S. typhimurium infected FVB mice was studied in the presence of P7T&P13T. […] Colon samples were further examined for histological changes. […] The stool was collected, plated on SS agar to determine S. typhimurium colony formation.
# (c) In vivo imaging and intensity quantitation of mice infected with S. typhimurium strain (Xen33) expressing luciferase on the 8th day (n=5 mice per group). […] (i) Immunohistochemistry images (40×) showing expression of HIF-1α and its quantification in the colon (n=5). […] Data representative of triplicates and repeated three times each individual experiments*P<0.05, **P <0.01, ***P<0.001, **** P<0.0001, ns, non-significant. (Student's t-test and one-way ANOVA).
# [4] = target: T1, GAPR-1; assay: MicroScale Thermophoresis (MST), peptide titrated on purified Gapr-1; fraction bound against peptide conc. (M) [3A]
# [5] = target: T1, GAPR-1; assay: MicroScale Thermophoresis (MST), purified Gapr-1
# [6] = FVB mice infected with S. typhimurium
Molecule,interference with phosphorylation of p70S6K and mTOR activity [2],Kd [5],other results
NC(=O)C[C@H](NC(=O)CNC(=O)[C@H](Cc1ccc(O)cc1)NC(=O)[C@@H]1CCCN1)C(=O)N[C@@H](Cc1c[nH]cn1)C(=O)N[C@@H](CO)C(=O)N[C@@H](Cc1ccc(O)cc1)C(=O)O [P3T] (H-PYGNHSY-OH; N-terminus and C-terminus assumed),–,–,inhibition of S. typhimurium [1]: 49.5%
CC[C@H](C)[C@H](NC(=O)[C@@H](NC(=O)CNC(=O)[C@@H](N)Cc1ccccc1)[C@@H](C)O)C(=O)N[C@@H](CC(N)=O)C(=O)N[C@@H](CC(N)=O)C(=O)N[C@@H](Cc1ccccc1)C(=O)N[C@@H](CCCNC(=N)N)C(=O)N[C@@H](CC(C)C)C(=O)O [P7T] (H-FGTINNFRL-OH),did not interfere with the phosphorylation of p70S6K and mTOR activity,–,"bacterial burden in faecal sample / stool ([3]; FVB mice infected orally with Xen-33, stool plated on SS agar): significant decrease in bacterial burden; length of the colon [3, 6]: significantly reduced in untreated mice compare to P7T; splenomegaly [3, 6]: difference in splenomegaly was not observed; histopathology score ([3]; intestine/colon H&E staining, FVB mice infected with S. typhimurium): significantly less"
CC(C)C[C@H](NC(=O)CNC(=O)CNC(=O)[C@H](CO)NC(=O)[C@H](CS)NC(=O)[C@H](Cc1ccc(O)cc1)NC(=O)[C@@H](N)CC(C)C)C(=O)N[C@@H](CCCNC(=N)N)C(=O)N[C@@H](Cc1ccccc1)C(=O)N[C@@H](Cc1ccccc1)C(=O)N[C@@H](Cc1c[nH]c2ccccc12)C(=O)N[C@@H](CC(=O)O)C(=O)O [P8T] (H-LYCSGGLRFFWD-OH),–,–,inhibition of S. typhimurium [1]: 62.16%
CC(C)C[C@H](NC(=O)[C@H](C)NC(=O)[C@H](Cc1c[nH]cn1)NC(=O)[C@H](CC(C)C)NC(=O)[C@H](CC(C)C)NC(=O)[C@H](CC(C)C)NC(=O)[C@@H](NC(=O)[C@@H](NC(=O)[C@@H](N)CCC(N)=O)[C@@H](C)O)C(C)C)C(=O)O [P9T] (H-QTVLLLHAL-OH),did not interfere with the phosphorylation of p70S6K and mTOR activity,–,–
CC(C)C[C@H](NC(=O)[C@H](Cc1ccc(O)cc1)NC(=O)[C@H](CO)NC(=O)[C@H](Cc1c[nH]cn1)NC(=O)[C@H](CC(N)=O)NC(=O)CNC(=O)[C@H](Cc1ccc(O)cc1)NC(=O)[C@@H]1CCCN1C(=O)[C@@H](NC(=O)[C@H](CC(C)C)NC(=O)[C@@H](N)CCCNC(=N)N)C(C)C)C(=O)N[C@@H](CCC(=O)O)C(=O)N[C@@H](CO)C(=O)O [P13T] (H-RLVPYGNHSYLES-OH),did not interfere with the phosphorylation of p70S6K and mTOR activity,–,–
PYGNHSY (also called peptide P3T) [P3T],–,–,Kd [4]: 210 nM
LYCSGGLRFFWD (also called peptide P8T) [P8T],–,120 nM,–
FGTINNFRL (also called peptide P7T) [P7T],–,130 nM,–
RLVPYGNHSYLES (also called peptide P13T) [P13T],–,70 nM,–
QTVLLLHAL (also called peptide P9T) [P9T],–,1560 nM,–
